Drawing on patent US20260217703A1, “INHIBITORS OF a-HEMOL YSIN OF STAPHYLOCOCCUS AUREUS” (HELMHOLTZ-ZENTRUM FÜR INFEKTIONSFORSCHUNG GMBH, priority 2022, published 2026), this text covers IC50 for 28 molecules.

For experiment [1], the target named is hemolysin alpha from Staphylococcus aureus (Staphylococcus aureus, UniProt P09616). In words: cell-based.
In experiment [2] the target is S. aureus Alpha hemolysin (Staphylococcus aureus, UniProt P09616). In words: cell-based.
Sequence of S. aureus Alpha hemolysin (P09616 27-319 limits assumed): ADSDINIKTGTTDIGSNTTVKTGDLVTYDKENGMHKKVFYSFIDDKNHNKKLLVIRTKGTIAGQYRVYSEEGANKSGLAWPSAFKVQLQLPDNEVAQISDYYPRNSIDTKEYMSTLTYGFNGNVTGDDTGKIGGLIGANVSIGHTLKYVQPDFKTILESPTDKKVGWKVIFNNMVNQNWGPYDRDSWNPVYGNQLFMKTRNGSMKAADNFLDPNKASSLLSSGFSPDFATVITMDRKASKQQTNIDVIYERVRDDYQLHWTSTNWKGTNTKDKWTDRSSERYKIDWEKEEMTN

Sequence of hemolysin alpha from Staphylococcus aureus (P09616 27-319 limits assumed): as above

In general, IC50 refers to the concentration at which inhibition is half-maximal. Read a high IC50 as weaker potency in that assay. For `Cc1cc2[nH]c(=O)c(=O)[nH]c2nc1S(=O)(=O)Nc1ccc(-c2ccc(F)cc2)c(Cl)c1` [Compound 9, N-(2-chloro-4′-fluoro-[1,1′-biphenyl]-4-yl)-7-methyl-2,3-dioxo-1,2,3,4-tetrahydropyrido[2,3-b]pyrazine-6-sulfonamide], the half-maximal inhibitory concentration (IC50) in experiment [1] was less than 30 nM; in experiment [2] it was 100 to 1000 nM.
The like results for `Cc1cc2[nH]c(=O)c(=O)[nH]c2nc1S(=O)(=O)Nc1ccc(-c2ccc(F)c(Cl)c2)c(Cl)c1` [Compound 10, N-(2,3′-dichloro-4′-fluoro-[1,1′-biphenyl]-4-yl)-7-methyl-2,3-dioxo-1,2,3,4-tetrahydropyrido[2,3-b]pyrazine-6-sulfonamide] were, in that order, 30 to 100 nM and 1000 to 6000 nM.
Regarding `Cc1cc2[nH]c(=O)c(=O)[nH]c2nc1S(=O)(=O)Nc1ccc(-c2cncc(Cl)c2)c(Cl)c1` [Compound 11, N-(3-chloro-4-(5-chloropyridin-3-yl)phenyl)-7-methyl-2,3-dioxo-1,2,3,4-tetrahydropyrido[2,3-b]pyrazine-6-sulfonamide], the concentration for half-maximal inhibition (IC50) in experiment [1] and in experiment [2] was 100 to 1000 nM throughout.
For the molecule `Cc1cc2[nH]c(=O)c(=O)[nH]c2nc1S(=O)(=O)Nc1cnc(-c2ccc(F)cc2)c(Cl)c1` [Compound 12, N-(5-chloro-6-(4-fluorophenyl)pyridin-3-yl)-7-methyl-2,3-dioxo-1,2,3,4-tetrahydropyrido[2,3-b]pyrazine-6-sulfonamide], the values for the IC50 in experiment [1] and in experiment [2] were 30 to 100 nM and 1000 to 6000 nM, respectively.
Turning to `Cc1cc2[nH]c(=O)c(=O)[nH]c2nc1S(=O)(=O)Nc1cnc(-c2cncc(Cl)c2)c(Cl)c1` [Compound 13, N-(3,5′-dichloro-[2,3′-bipyridin]-5-yl)-7-methyl-2,3-dioxo-1,2,3,4-tetrahydropyrido[2,3-b]pyrazine-6-sulfonamide], the IC50 in experiment [1] lay within 1000 to 3500 nM.
Turning to `COc1ccc(-c2ccc(NS(=O)(=O)c3nc4[nH]c(=O)c(=O)[nH]c4cc3C)cc2Cl)cc1F` [Compound 14, N-(2-chloro-3′-fluoro-4′-methoxy-[1,1′-biphenyl]-4-yl)-7-methyl-2,3-dioxo-1,2,3,4-tetrahydropyrido[2,3-b]pyrazine-6-sulfonamide], the IC50 in experiment [1] is 30 to 100 nM; in experiment [2], 100 to 1000 nM.
On to `Cc1nc2cc(-c3ccc(NS(=O)(=O)c4nc5[nH]c(=O)c(=O)[nH]c5cc4C)cc3Cl)ccc2o1` [Compound 15, N-(3-chloro-4-(2-methylbenzo[d]oxazol-5-yl)phenyl)-7-methyl-2,3-dioxo-1,2,3,4-tetrahydropyrido[2,3-b]pyrazine-6-sulfonamide], for which the half-maximal inhibitory concentration (IC50) in experiment [1] is less than 30 nM; in experiment [2] it was 30 to 100 nM.
For `Cc1cc2[nH]c(=O)c(=O)[nH]c2nc1S(=O)(=O)Nc1ccc(-c2ccc3cc[nH]c3c2)c(Cl)c1` [Compound 16, N-(3-chloro-4-(1H-indol-6-yl)phenyl)-7-methyl-2,3-dioxo-1,2,3,4-tetrahydropyrido[2,3-b]pyrazine-6-sulfonamide] the same measures were less than 30 nM and 100 to 1000 nM.
For the molecule `Cc1cc2[nH]c(=O)c(=O)[nH]c2nc1S(=O)(=O)Nc1ccc(-c2ccc(C#N)cc2)c(Cl)c1` [Compound 17, N-(2-chloro-4′-cyano-[1,1′-biphenyl]-4-yl)-7-methyl-2,3-dioxo-1,2,3,4-tetrahydropyrido[2,3-b]pyrazine-6-sulfonamide], the values for the IC50 in experiment [1] and in experiment [2] were 30 to 100 nM and 100 to 1000 nM, respectively.
Consider `Cc1cc(NS(=O)(=O)c2nc3[nH]c(=O)c(=O)[nH]c3cc2C)ccc1Br` [Compound 18, N-(4-bromo-3-methylphenyl)-7-methyl-2,3-dioxo-1,2,3,4-tetrahydropyrido[2,3-b]pyrazine-6-sulfonamide], for which the IC50 in experiment [1] and in experiment [2] was 100 to 1000 nM throughout.
For the molecule `Cc1cc2[nH]c(=O)c(=O)[nH]c2nc1S(=O)(=O)Nc1ccc(C(C)C)cc1` [Compound 19, N-(4-isopropylphenyl)-7-methyl-2,3-dioxo-1,2,3,4-tetrahydropyrido[2,3-b]pyrazine-6-sulfonamide], the IC50 in experiment [1] and in experiment [2] was 100 to 1000 nM throughout.
As to `Cc1cc2[nH]c(=O)c(=O)[nH]c2nc1S(=O)(=O)Nc1ccc(C2=CCCCC2)cc1` [Compound 20, 7-methyl-2,3-dioxo-N-(2′,3′,4′,5′-tetrahydro-[1,1′-biphenyl]-4-yl)-1,2,3,4-tetrahydropyrido[2,3-b]pyrazine-6-sulfonamide], the 50% inhibitory concentration (IC50) in experiment [1] and in experiment [2] was 100 to 1000 nM each time.
With `Cc1cc2[nH]c(=O)c(=O)[nH]c2nc1S(=O)(=O)Nc1ccc(C2CCC2)cc1` [Compound 21, N-(4-cyclobutylphenyl)-7-methyl-2,3-dioxo-1,2,3,4-tetrahydropyrido[2,3-b]pyrazine-6-sulfonamide], the IC50 in experiment [1] is less than 30 nM; in experiment [2], 30 to 100 nM.
With `Cc1cc2[nH]c(=O)c(=O)[nH]c2nc1S(=O)(=O)Nc1ccc(OC(F)(F)F)cc1` [Compound 22, 7-methyl-2,3-dioxo-N-(4-(trifluoromethoxy)phenyl)-1,2,3,4-tetrahydropyrido[2,3-b]pyrazine-6-sulfonamide], the IC50 in experiment [1] and in experiment [2] was less than 30 nM each time.
Take `Cc1cc2[nH]c(=O)c(=O)[nH]c2nc1S(=O)(=O)Nc1ccc(C23CC(C2)C3)cc1` [Compound 23, N-(4-(bicyclo[1.1.1]pentan-1-yl)phenyl)-7-methyl-2,3-dioxo-1,2,3,4-tetrahydropyrido[2,3-b]pyrazine-6-sulfonamide]: the IC50 in experiment [1] was less than 30 nM; in experiment [2], 100 to 1000 nM.
On to `Cc1cc2[nH]c(=O)c(=O)[nH]c2nc1S(=O)(=O)Nc1ccc2ccccc2c1` [Compound 24, 7-methyl-N-(naphthalen-2-yl)-2,3-dioxo-1,2,3,4-tetrahydropyrido[2,3-b]pyrazine-6-sulfonamide], for which the half-maximal inhibitory concentration (IC50) in experiment [1] and in experiment [2] was 100 to 1000 nM throughout.
For `O=c1[nH]c2cc(Br)c(S(=O)(=O)Nc3ccc(OC(F)(F)F)cc3)nc2[nH]c1=O` [Compound 25, 7-bromo-2,3-dioxo-N-(4-(trifluoromethoxy)phenyl)-1,2,3,4-tetrahydropyrido[2,3-b]pyrazine-6-sulfonamide], the half-inhibitory concentration (IC50) in experiment [1] is 30 to 100 nM; in experiment [2], 100 to 1000 nM.
The like results for `O=c1[nH]c2ccc(S(=O)(=O)Nc3ccc(OC(F)(F)F)cc3)nc2[nH]c1=O` [Compound 26, 2,3-dioxo-N-(4-(trifluoromethoxy)phenyl)-1,2,3,4-tetrahydropyrido[2,3-b]pyrazine-6-sulfonamide] were, in that order, 100 to 1000 nM and 100 to 1000 nM.
Regarding `C=C(C)c1cc2[nH]c(=O)c(=O)[nH]c2nc1S(=O)(=O)Nc1ccc(OC(F)(F)F)cc1` [Compound 27, 2,3-dioxo-7-(prop-1-en-2-yl)-N-(4-(trifluoromethoxy)phenyl)-1,2,3,4-tetrahydropyrido[2,3-b]pyrazine-6-sulfonamide], the IC50 in experiment [1] and in experiment [2] was less than 30 nM each time.
As for `Cc1nc2ccc(-c3ccc(NS(=O)(=O)c4ccc5[nH]c(=O)c(=O)[nH]c5n4)cc3Cl)cc2o1` [Compound 28, N-(3-chloro-4-(2-methylbenzo[d]oxazol-6-yl)phenyl)-2,3-dioxo-1,2,3,4-tetrahydropyrido[2,3-b]pyrazine-6-sulfonamide], the results for the IC50 in experiment [1] and in experiment [2] were less than 30 nM and 100 to 1000 nM, respectively.
For `O=c1[nH]c2ccc(S(=O)(=O)Nc3ccc(-c4ccc(F)cc4)c(Cl)c3)nc2[nH]c1=O` [Compound 29, N-(2-chloro-4′-fluoro-[1,1′-biphenyl]-4-yl)-2,3-dioxo-1,2,3,4-tetrahydropyrido[2,3-b]pyrazine-6-sulfonamide] the same measures were 100 to 1000 nM and 1000 to 6000 nM.
In experiment [1], `Cc1nc2ccc(-c3ccc(NS(=O)(=O)c4ccc5[nH]c(=O)c(=O)[nH]c5n4)cc3Cl)cc2[nH]1` [Compound 30, N-(3-chloro-4-(2-methyl-1H-benzo[d]imidazol-6-yl)phenyl)-2,3-dioxo-1,2,3,4-tetrahydropyrido[2,3-b]pyrazine-6-sulfonamide] came in with a 50% inhibitory concentration (IC50) of 1000 to 3500 nM.
With `Cc1nc2cc(-c3ncc(NS(=O)(=O)c4ccc5[nH]c(=O)c(=O)[nH]c5n4)cc3Cl)ccc2o1` [Compound 31, N-(5-chloro-6-(2-methylbenzo[d]oxazol-5-yl)pyridin-3-yl)-2,3-dioxo-1,2,3,4-tetrahydropyrido[2,3-b]pyrazine-6-sulfonamide], the results for the IC50 in experiment [1] and in experiment [2] were 100 to 1000 nM and 1000 to 6000 nM, respectively.
`Cc1cc2[nH]c(=O)c(=O)[nH]c2nc1S(=O)(=O)Nc1ccc(-c2ccc(F)cc2)c(C(F)(F)F)c1` [Compound 32, N-(4′-fluoro-2-(trifluoromethyl)-[1,1′-biphenyl]-4-yl)-7-methyl-2,3-dioxo-1,2,3,4-tetrahydropyrido[2,3-b]pyrazine-6-sulfonamide]: the IC50 in experiment [1] and in experiment [2] was 100 to 1000 nM each time.
For the molecule `Cc1cc(NS(=O)(=O)c2nc3[nH]c(=O)c(=O)[nH]c3cc2C)ccc1-c1ccc(F)cc1` [Compound 33, N-(4′-fluoro-2-methyl-[1,1′-biphenyl]-4-yl)-7-methyl-2,3-dioxo-1,2,3,4-tetrahydropyrido[2,3-b]pyrazine-6-sulfonamide], the IC50 is 100 to 1000 nM in experiment [1] and 30 to 100 nM in experiment [2].
For `CC(C)c1cc2[nH]c(=O)c(=O)[nH]c2nc1S(=O)(=O)Nc1ccc(OC(F)(F)F)cc1` [Compound 34, 7-isopropyl-2,3-dioxo-N-(4-(trifluoromethoxy)phenyl)-1,2,3,4-tetrahydropyrido[2,3-b]pyrazine-6-sulfonamide] the same measures were 30 to 100 nM and 100 to 1000 nM.
The like results for `Cc1nc2cc(-c3ncc(NS(=O)(=O)c4nc5[nH]c(=O)c(=O)[nH]c5cc4C)cc3Cl)ccc2o1` [Compound 35, N-(5-chloro-6-(2-methylbenzo[d]oxazol-5-yl)pyridin-3-yl)-7-methyl-2,3-dioxo-1,2,3,4-tetrahydropyrido[2,3-b]pyrazine-6-sulfonamide] were, in that order, less than 30 nM and 100 to 1000 nM.
Consider `Cc1cc2[nH]c(=O)c(=O)[nH]c2nc1S(=O)(=O)Nc1cnc(-c2ccc3c(c2)NC(=O)CO3)c(Cl)c1` [Compound 36, N-(5-chloro-6-(3-oxo-3,4-dihydro-2H-benzo[b][1,4]oxazin-6-yl)pyridin-3-yl)-7-methyl-2,3-dioxo-1,2,3,4-tetrahydropyrido[2,3-b]pyrazine-6-sulfonamide], for which the figures for the 50% inhibitory concentration (IC50) in experiment [1] and in experiment [2] were 30 to 100 nM and 1000 to 6000 nM, respectively.
